Values after ≈ are worked out from the molar mass of the structure shown. Where two headings read alike, the source gives them in different places.
Key:
K562 leukemia cell-line = assay: Cytotoxicity, K562 leukemia cell-line; type: cell-based; settings: Homo sapiens
Protocol: (§1) The cytotoxicity assays were performed in accordance with the literature protocols. The Na^+/K^+-ATPase, isocitrate lyase, and sortase A inhibition assays were performed according to previously described methods. The antimicrobial assays were performed according to the method described previously.

[1] = system: A549 lung cancer cell-line; assay: Cytotoxicity, A549 lung cancer cell-line; type: cell-based; settings: Homo sapiens
Protocol: as §1

[2] = system: MRC5 human lung fibroblast cell-line; assay: Cytotoxicity, MRC5 normal cell-line; type: cell-based
Protocol: as §1

Na^+/K^+-ATPase = assay: Na+/K+-ATPase inhibition assay; type: biochemical; settings: enzyme inhibition
Protocol: as §1

[3] = system: Staphylococcus aureus (ATCC 6538p); assay: Antibacterial assay, S. aureus; type: cell-based; settings: ATCC6538P, read-out: MIC, A: Staphylococcus aureus
Protocol: as §1

[4] = system: Bacillus subtilis (ATCC 6633); assay: Antibacterial assay, B. subtilis; type: cell-based
Protocol: as §1

[5] = system: Micrococcus luteus (IFO 12708); assay: Antibacterial assay, M. luteus; type: cell-based
Protocol: as §1

[6] = system: Salmonella typhimurium (ATCC 14028); assay: Antibacterial assay, S. typhimurium; type: cell-based; settings: Salmonella enterica, read-out: MIC, D: Salmonella typhimurium
Protocol: as §1

[7] = system: Proteus vulgaris (ATCC 3851); assay: Antibacterial assay, P. vulgaris; type: cell-based
Protocol: as §1

[8] = system: Escherichia coli (ATCC 35270); assay: Antibacterial assay, E. coli; type: cell-based
Protocol: as §1

sortase A = sortase A (Staphylococcus aureus, UniProt Q2FV99); assay: Sortase A inhibition assay; type: biochemical
Protocol: as §1

[9] = K562 leukemia cell-line cytotoxicity, read-out: IC50, K562
[10] = A549 lung cancer cell-line cytotoxicity, read-out: IC50, A549
[11] = MRC5 human lung fibroblast (normal) cell-line cytotoxicity, read-out: IC50, MRC5
[12] = ATCC6633, Gram(+), ATCC 6633, read-out: MIC, B: Bacillus subtilis
[13] = IFO12708, Gram(+), IFO 12708, read-out: MIC, C: Micrococcus luteus
[14] = ATCC3851, Gram(−), ATCC 3851, read-out: MIC, E: Proteus vulgaris
[15] = ATCC35270, Gram(−), ATCC 35270, read-out: MIC, F: Escherichia coli

sortase A, sequence (Q2FV99 whole entry): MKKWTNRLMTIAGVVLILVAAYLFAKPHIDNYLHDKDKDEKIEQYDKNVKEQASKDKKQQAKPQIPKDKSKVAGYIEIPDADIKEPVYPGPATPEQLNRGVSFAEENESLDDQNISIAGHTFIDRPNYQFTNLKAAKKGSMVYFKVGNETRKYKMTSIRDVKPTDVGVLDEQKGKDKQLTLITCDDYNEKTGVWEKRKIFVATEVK

| Structure (SMILES) | IC50 (K562 leukemia cell-line; [9]) [µM] | IC50 [1, 10] [µM] | IC50 [2, 11] [µM] | IC50 (Na^+/K^+-ATPase) [µM] | MIC ([3]; Gram(+), ATCC 6538p) [µg/mL] | MIC [4, 12] [µg/mL] | MIC [5, 13] [µg/mL] | MIC ([6]; Gram(−), ATCC 14028) [µg/mL] | MIC [7, 14] [µg/mL] | MIC [8, 15] [µg/mL] | IC50 (sortase A) [µM] | also measured |
| --- | --- | --- | --- | --- | --- | --- | --- | --- | --- | --- | --- | --- |
| COc1c(I)cc(/C=C/C(=O)NCCc2ccccc2)cc1I [Compound 4, apliamide D] | 18.2 | > 100 | > 100 | 3.2 | > 100 | > 100 | > 100 | > 100 | > 100 | > 100 | > 300 |  |
| CN[C@@H](Cc1cc(I)c(OC)c(I)c1)C(=O)NCCc1ccccc1 [Compound 1, apliamide A] | 14.3 | > 100 | 59.2 | 163 | > 100 | > 100 | > 100 | > 100 | > 100 | > 100 | > 300 |  |
| COc1cccc2c1C(=O)c1c(O)c3c(c(O)c1C2=O)C[C@@](O)(C(=O)CO)C[C@@H]3O[C@H]1C[C@H](N)[C@H](O)[C@H](C)O1 [Doxorubicin, reference compound] | 1.2 | 1.4 | 9.8 |  |  |  |  |  |  |  |  |  |
| COc1c(I)cc(C[C@@H](C(=O)NCCc2ccccc2)N(C)C)cc1I [Compound 2, apliamide B] | 21.1 | 10.8 | 73.7 | > 200 | > 100 | > 100 | > 100 | > 100 | > 100 | > 100 | > 300 |  |
| O=C(O)c1cc[c]([Hg][OH])cc1 [pHMB, para-Hydroxymercuribenzoic acid, reference compound] |  |  |  |  |  |  |  |  |  |  |  | IC50 (sortase A; sortase A inhibition, read-out: IC50, Srt A): 109 µM |
| COc1c(I)cc(CCN(C)C)cc1I [Compound 6, apliamine A] |  |  |  | 189 |  |  |  |  |  |  | > 300 | IC50 (K562 leukemia cell-line; K562, read-out: IC50, K562): 19.7 µM; IC50 ([1]; A549, read-out: IC50, A549): 8.3 µM; IC50 ([2]; Homo sapiens, MRC5, read-out: IC50, MRC5): > 100 µM; MIC [3]: > 100 µg/mL; MIC ([4]; ATCC6633, read-out: MIC, B: Bacillus subtilis): > 100 µg/mL; MIC ([5]; IFO12708, read-out: MIC, C: Micrococcus luteus): > 100 µg/mL; MIC [6]: > 100 µg/mL; MIC ([7]; ATCC3851, read-out: MIC, E: Proteus vulgaris): > 100 µg/mL; MIC ([8]; ATCC35270, read-out: MIC, F: Escherichia coli): > 100 µg/mL |
| CC1(C)S[C@@H]2[C@H](NC(=O)[C@H](N)c3ccccc3)C(=O)N2[C@H]1C(=O)O [Ampicillin, reference compound] |  |  |  |  | 0.4 (≈ 1.14 µM) | 0.4 (≈ 1.14 µM) | 0.4 (≈ 1.14 µM) | 0.4 (≈ 1.14 µM) | 0.8 (≈ 2.29 µM) | 6.3 (≈ 18 µM) |  |  |
| CN(C)[C@@H](Cc1c[nH]c2cc(Br)ccc12)C(=O)NCCc1ccccc1 [Compound 5, apliamide E] | 7.8 | 22.8 | 37 | > 200 | > 100 | > 100 | > 100 | > 100 | > 100 | > 100 | > 300 |  |
| COc1ccc(CCNC(=O)[C@H](Cc2cc(I)c(OC)c(I)c2)N(C)C)cc1I [Compound 3, apliamide C] | 10.4 | 13.4 | > 100 | > 200 | > 100 | > 100 | > 100 | > 100 | > 100 | > 100 | > 300 |  |
